Test results as given in patent US10900018B2, “Means and methods for generation of breast stem cells” (Helmholtz Zentrum München—Deutsches Forschungszentrum Für …, priority 2015, dated 2021).

What was measured:
Format in all cases: cell-based, human
freshly isolated HMEC = experiment: Structure formation by freshly isolated HMEC in floating collagen I gels
Source text: Mammary gland tissue was obtained from healthy women undergoing reduction mammoplasty at the Nymphenburg Clinic for Plastic and Aesthetic Surgery (Christian Gabka), in accordance with the regulations of the ethics committee of the Ludwig-Maximilian University Munich (proposal 397-12). Single cell suspensions of primary HMEC were generated as previously described with minor modifications (Stingl et al., 2005). Briefly, the ductal tree was minced into about 1.0 mm^3 pieces and digested in collagenase I and hyaluronidase (both Sigma), and subsequently with Trypsin-EDTA and dispase (Life Technologies), and then cryopreserved. Before further processing, cells were filtered through a 40 μm strainer, to remove residual tissue fragments and cell aggregates. Cells were seeded in 2D on polystyrene cell culture plates or in collagen I gels in Mammary Epithelial Cell Growth Medium (MECGM, PromoCell) supplemented with 1% Pen/Strep (Invitrogen), 0.5% FCS (Pan Biotech), 3 μM Y-27632 (Biomol) and 10 μM Forskolin (Biomol), unless stated otherwise. After an establishment period of 5 days, medium was changed to MECGM supplemented with 1% Pen/Strep and 10 μM Forskolin, unless stated otherwise.
Single cell suspensions containing the desired amount of cells were quickly mixed with neutralizing solution, and acidified rat tail collagen I (Corning) was added, resulting in a final collagen I concentration of 1.3 mg/ml. Next, the gel mixture was plated into siloxane-coated 24-well or 48-well plates. After polymerization of the gel, medium with supplements was carefully added and gels were detached from the well. Attached and attached-to-floating gels were prepared in uncoated 24-well plates. Cells were maintained for 8 up to 20 days (shorter periods for quantification and longer periods for long term treatments).
Mammary gland tissue was obtained from healthy women undergoing reduction mammoplasty at the Nymphenburg Clinic for Plastic and Aesthetic Surgery (Prof. Christian Gabka), in accordance with the regulations of the ethics committee of the Ludwig-Maximilian University Munich (proposal 397-12). Single cell suspensions of primary HMEC were generated as previously described with minor modifications (Stingl et al., 2005). Briefly, the ductal tree was minced into about 1 mm^3 pieces and enzymatically digested in tissue digestion buffer (F12:DME/HEPES, 1.5% w/v BSA) supplemented with 1 μg/ml insulin, 300 U/ml collagenase and 100 U/ml hyaluronidase (all Sigma) at 37° C. over night. The stromal compartment was optionally separated by differential centrifugation and cryopreserved. The pellet enriched for epithelial cells was further dissociated in 0.15% Trypsin-EDTA and 5 mg/ml dispase (Life Technologies) and then cryopreserved. Before further processing, cells were filtered through a 40 μm strainer, to remove residual tissue fragments and cell aggregates. Freshly isolated primary HMEC were seeded in Mammary Epithelial Cell Growth Medium (MECGM, PromoCell) supplemented with 1% Pen/Strep (Invitrogen), 0.5% FCS (Pan Biotech), 3 μM Y-27632 (Biomol) and 10 μM Forskolin (Biomol), unless otherwise stated. After an establishment period of 5 days, medium was changed to MECGM supplemented 1% Pen/Strep and 10 μM Forskolin, unless otherwise stated. Upon establishment, medium was replaced every 3-4 days. Cells were maintained in 5% CO2, 3% O2 for the whole culture period. […]

HMEC [1] = experiment: Inhibition of contraction: alveologenesis after detachment of attached collagen gels; details: donor M10
Protocol: (§1) For contraction assays, 5×10^3 HMEC were plated or 3×10^3 sorted B+ cells/400 μl collagen gel and 1×10^4 LP cells/400 μl collagen gel. At day 12 of culture, 2 ng/μl TGF-β1 (R&D Systems) was added to the culture medium once. For inhibition of contraction experiments, 3×10^3 HMEC (Donor M10) were plated/400 μl collagen gel, and the gels were left attached to the culture dish. At day 13 of culture, when structures had formed, gels were detached and 10 μM Blebbistatin or 5 μM Y-27632 were added to the culture medium every 24 hours. To determine the number of cells per gel, collagen gels were minced using a scalpel, digested with 300 U/ml collagenase I (Sigma) for 1 hour at 37° C., followed by 0.15% trypsin (5 minutes at 37° C.), and filtered to obtain single cells. Cells were counted with a hemocytometer. Images of structures in the gels were acquired on a Leica DM IL LED microscope equipped with a HiPlan 10×/0.22 PH1 objective and images of whole gels were taken with a Zeiss SteREO Lumar.V12 microscope with a NeoLumar S 0.8×objective (6.4× Zoom).

[2] = test system: B+ cells (CD10+/CD49fhi/EpCAM−); experiment: Contraction of floating collagen I gels containing B+ cell derived TDLU-like structures
Protocol: as §1, with “At day 12 of culture, 2 ng/μl TGF-β1 (R&D Systems) was added to the culture medium once.” left out
(§2) Size of gels, structures, and cells was determined with the ImageJ tool for measurement of areas. Quantification of structures was carried out using the ImageJ cell counter. Structures with at least two branching points were considered as branched. For branching point analysis, branches were traced, one main branch was set, and one branching point was counted for each side-branch.

LP cells (CD49f+/EpCAM+) = experiment: Contraction of floating collagen I gels containing LP-derived spheres; details: 2.0 ng/ml TGF-β1 once
Protocol: as §1, with “At day 12 of culture, 2 ng/μl TGF-β1 (R&D Systems) was added to the culture medium once.” left out
as §2

HMEC [3] = experiment: ELDA of branched structure-forming units in floating collagen gels after 2D-culture; details: 2D-culture in presence of 10 μM Forskolin, donor M4
Source text: Mammary gland tissue was obtained from healthy women undergoing reduction mammoplasty at the Nymphenburg Clinic for Plastic and Aesthetic Surgery (Christian Gabka), in accordance with the regulations of the ethics committee of the Ludwig-Maximilian University Munich (proposal 397-12). Single cell suspensions of primary HMEC were generated as previously described with minor modifications ([…] et al., 2005). Briefly, the ductal tree was minced into about 1.0 mm^3 pieces and digested in collagenase I and hyaluronidase (both Sigma), and subsequently with Trypsin-EDTA and dispase (Life Technologies), and then cryopreserved. Before further processing, cells were filtered through a 40 μm strainer, to remove residual tissue fragments and cell aggregates. Cells were seeded in 2D on polystyrene cell culture plates or in collagen I gels in Mammary Epithelial Cell Growth Medium (MECGM, PromoCell) supplemented with 1% Pen/Strep (Invitrogen), 0.5% FCS (Pan Biotech), 3 μM Y-27632 (Biomol) and 10 μM Forskolin (Biomol), unless stated otherwise. After an establishment period of 5 days, medium was changed to MECGM supplemented with 1% Pen/Strep and 10 μM Forskolin, unless stated otherwise. […] Gels with at least one branched structure were counted as positive. […] Limiting dilutions were analyzed using a webtool, as described previously (Hu and Smyth, 2009).

[4] = 10 μM Forskolin, continuous treatment, donor M8

Q: Which results are given for `C[C@@H](N)[C@H]1CC[C@H](C(=O)Nc2ccncc2)CC1` [Y-27632]?
A: increase of branched structure formation (freshly isolated HMEC; 3 μM Y-27632, added upon plating, removed after 5 days, floating collagen I gels, day 14, donor M8): approximately 5 fold; effect of continuous treatment on morphogenesis (freshly isolated HMEC; continuous Y-27632 after 5 days of initial culture, data not shown): dissolution of cell-cell adhesion; acquisition of alveolar morphology after gel detachment (HMEC [1]; 5 μM Y-27632 every 24 hours from detachment at day 13): prevented

Q: For `Cc1ccc2c(c1)C(=O)C1(O)CCN(c3ccccc3)C1=N2` (stereo not shown) [Blebbistatin], which “acquisition of alveolar morphology after gel detachment” value (HMEC [1]; 10 μM Blebbistatin every 24 hours from detachment at day 13) is on record?
A: Its value is “prevented”.

Q: “TGF-β1: recombinant TGF-β1, morphogen that promotes contractility (R&D Systems)” was tested. Which “average cell size in treated structures versus controls” value ([2]; TGF-β1-treated B+ derived structures, donor M8, phalloidin F-actin staining) did it give?
A: Its value is “significantly smaller”.

Q: And the “increase of contraction of the gels” value ([2]; one-time treatment with 2.0 ng/ml recombinant TGF-β1 at day 12 of culture, gel size 2 days later, donors M3, M10)?
A: Its value is “approximately 2 fold”.

Q: What about the “effect on size of gels” value (LP cells (CD49f+/EpCAM+); LP-derived spheres, donor M10) of the same compound?
A: The value was “did not have an effect”.

Q: What about the “effect on size of gels” value (LP cells (CD49f+/EpCAM+); M3 luminal cells) of the same compound?
A: The value was “slight contraction”.

Q: `C=C[C@@]1(C)CC(=O)[C@]2(O)[C@@]3(C)[C@@H](O)CCC(C)(C)[C@@H]3[C@H](O)[C@H](OC(C)=O)[C@@]2(C)O1` [Forskolin] was tested. Which “increase of formation of TDLU-like branched structures” value (freshly isolated HMEC; [4]) did it give?
A: The value was “approximately 12 fold”.

Q: And the “increase of formation of non-branched structures (mostly spheres)” value (freshly isolated HMEC; [4])?
A: The value was “approximately 1.5 fold”.

Q: What about the “increase of overall branched structure-forming potential” value (freshly isolated HMEC; [4]) of the same compound?
A: Its value is 3 fold.

Q: And the “cells giving rise to a TDLU-like structure (B-SFU)” value (HMEC [3]; passage 1)?
A: Its value is 1/290.

Q: What about the “cells giving rise to a TDLU-like structure (B-SFU)” value (HMEC [3]; passage 3) of the same compound?
A: The value was 1/250.
